In PubChem BioAssay (NCI):
Values joined by “and” are separate entries in the source; they are usually repeats but may differ in a detail not shown here. Identical values can stand only once.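 Results reflect a 48-hour exposure of cells in 96-well plates to compound at five concentrations. The concentration for 50% growth inhibition is given as GI50. TGI is the concentration that stops growth completely.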

Tests used:
Assay in all cases: NCI tumour cell line growth inhibition, 48 h
HCT-116 colon = tested on: HCT-116 colon
A549 NSCLC = tested on: A549 NSCLC
K-562 leukemia = tested on: K-562 leukemia
SF-268 CNS = tested on: SF-268 CNS
ACHN renal = tested on: ACHN renal
SF-539 CNS = tested on: SF-539 CNS
A498 renal = tested on: A498 renal
NCI/ADR-RES ovarian = tested on: NCI/ADR-RES ovarian
SF-295 CNS = tested on: SF-295 CNS
SK-MEL-28 melanoma = tested on: SK-MEL-28 melanoma

Compound	GI50 (HCT-116 colon)	TGI (HCT-116 colon)	GI50 (A549 NSCLC)	TGI (A549 NSCLC)	GI50 (K-562 leukemia)	TGI (K-562 leukemia)	GI50 (SF-268 CNS)	TGI (SF-268 CNS)	GI50 (ACHN renal)	TGI (ACHN renal)	GI50 (SF-539 CNS)	TGI (SF-539 CNS)	GI50 (A498 renal)	TGI (A498 renal)	GI50 (NCI/ADR-RES ovarian)	TGI (NCI/ADR-RES ovarian)	GI50 (SF-295 CNS)	TGI (SF-295 CNS)	GI50 (SK-MEL-28 melanoma)	TGI (SK-MEL-28 melanoma)
Fc1cc2[nH]ncc2c2c3c(c(-c4cn[nH]c4C(F)(F)F)nc12)C1CCC3C1 (centres undefined)	0.642 µM	5.55 µM	1.07 µM	4.41 µM	1.61 µM	> 50 µM	1.16 µM	4.64 µM	0.532 µM	3.2 µM	0.82 µM	2.1 µM	0.591 µM	1.25 µM	2.4 µM	16.1 µM	1.21 µM	4.94 µM	0.889 µM	2.84 µM
Nc1ccc(C(=O)CC(N)C(=O)O)cc1O (centres undefined)		> 100 µM		> 100 µM		> 100 µM		> 100 µM		> 100 µM		> 100 µM		> 100 µM		> 100 µM		> 100 µM		> 100 µM
CCn1c(-c2nonc2N)nc2c(C#CC(C)(C)O)nc(OCCNC)cc21	7.14 µM	> 21.6 µM	8.27 µM	> 25 µM	10.3 µM	> 25 µM	7.94 µM	> 25 µM	8.29 µM	> 25 µM	6.11 µM	20.7 µM	1.35 µM	9.43 µM	> 25 µM	> 25 µM	6.66 µM	> 22.6 µM	8.49 µM	> 25 µM
Nc1ccccc1C#C/C=C\C#Cc1ccccc1[N+](=O)[O-]	4.31 µM	36 µM	4.42 µM	21.3 µM	0.533 µM	5.93 µM	6.38 µM	27.7 µM	5.3 µM	19 µM	2.17 µM	10.4 µM	25.4 µM	69.7 µM	1.23 µM	6.47 µM	7.31 µM	85.8 µM	15.4 µM	34.8 µM
COc1ccc(-c2oc3c(OC)c(OC)c(OC)c(OC)c3c(=O)c2OC)cc1OC		> 100 µM		> 100 µM		> 100 µM		35.2 µM		> 100 µM		> 100 µM		> 100 µM		74 µM		> 100 µM		> 100 µM
O=C1C(c2ccccc2)=[N+]([O-])c2ccccc21		> 100 µM		48.7 µM		8.34 µM		27.4 µM		33.6 µM		32.8 µM		34 µM		36.3 µM		32.6 µM		33.2 µM
Cc1[nH]nc(C(=O)n2nc(N)c3ccccc32)c1[N+](=O)[O-]	> 100 µM	> 100 µM	> 100 µM	> 100 µM	> 100 µM	> 100 µM	> 100 µM	> 100 µM	> 100 µM	> 100 µM	> 100 µM	> 100 µM	> 100 µM	> 100 µM	> 100 µM	> 100 µM	> 100 µM	> 100 µM	> 100 µM	> 100 µM
CCN(CC)C(=S)SC		> 100 µM		> 100 µM		> 100 µM		> 100 µM		> 100 µM		> 100 µM		> 100 µM		> 100 µM		> 100 µM		> 100 µM
O=C1NC(=S)S/C1=C(/C=C(\CC(=O)c1ccccc1)c1ccc(Cl)cc1)c1ccccc1	31.8 µM	> 100 µM	20.2 µM	> 100 µM	15.3 µM	> 100 µM	27.1 µM	96 µM	25.5 µM	61.3 µM	39 µM	> 100 µM	38 µM	76 µM	28.4 µM	79.9 µM	23.4 µM	64.7 µM	61.9 µM	> 100 µM
COc1ccc2cc(-c3c(-c4ccncc4)nc(-c4ccc(S(C)(=O)=O)cc4C)n3C)ccc2c1	7.62 µM	> 25 µM	9.04 µM	> 25 µM	6.88 µM	> 25 µM	11.1 µM	> 25 µM	8.36 µM	> 25 µM	10.8 µM	> 25 µM	6.31 µM	> 25 µM	8.67 µM	> 25 µM	7.83 µM	> 25 µM	9.28 µM	24.9 µM
Cc1ccc(-c2csc(NC(=O)CN3CCN(c4cc5c(cc4F)c(=O)c(C(=O)O)cn5C4CC4)CC3)n2)cc1	0.348 µM	14.8 µM	0.433 µM	13.9 µM	0.771 µM	> 100 µM	0.493 µM	> 100 µM	2.58 µM	14.3 µM	0.819 µM	18.2 µM	1.02 µM	10.3 µM	3.06 µM	34 µM	1.15 µM	13.9 µM	1.94 µM	> 100 µM
Cc1nc2sccn2c1-c1csc(Nc2cccc(Cl)c2C)n1	4.67 µM	20.1 µM	3.23 µM	49.2 µM	2.12 µM	> 100 µM	11.9 µM	74.4 µM	6.84 µM	> 100 µM	6.61 µM	25.3 µM	1.45 µM	17.5 µM	3.45 µM	45.2 µM	1.72 µM	10.6 µM	5.67 µM	44.1 µM
O=C1c2cc(Cl)ccc2-c2c1c1ccc([N+](=O)[O-])cc1c(=O)n2CCCBr	3.48 µM	> 100 µM	5.85 µM	> 100 µM	4.46 µM	> 100 µM	1.65 µM	> 100 µM	2.42 µM	7.25 µM	3.94 µM	> 100 µM	24.2 µM	> 100 µM	5.01 µM	> 100 µM	2.63 µM	> 100 µM	33.5 µM	> 100 µM
COc1ccccc1/C=C/C(=O)c1ccccc1	3.5 µM	12.8 µM	17.9 µM	38.8 µM	3.41 µM	> 100 µM	13.1 µM	27 µM	5.04 µM	15.2 µM	16.4 µM	30.8 µM	16.3 µM	31 µM	5.75 µM	> 38.2 µM	14.8 µM	30.9 µM	16.6 µM	30.8 µM
Cc1cc2c(cc1Cl)SC1=NN(C)C(N(C)C)N1S2(=O)=O (centres undefined)	> 100 µM	> 100 µM	> 100 µM	> 100 µM	> 100 µM	> 100 µM	> 100 µM	> 100 µM	> 100 µM	> 100 µM	> 100 µM	> 100 µM	63.4 µM	> 100 µM	> 100 µM	> 100 µM	> 100 µM	> 100 µM	> 100 µM	> 100 µM
CCN(CC)C(=S)Oc1cc2oc(=O)cc(C)c2cc1Cl		> 100 µM		> 100 µM		> 100 µM		> 100 µM		> 100 µM		> 100 µM		> 100 µM		> 100 µM		> 100 µM		> 100 µM
COc1ccc(Cn2cc3c(c2)-c2oncc2CC3)cc1	3 µM	> 25.7 µM	7.26 µM	> 74.4 µM	2.4 µM	> 66.5 µM	8.19 µM	> 100 µM	11.6 µM	> 100 µM	2.94 µM	14.9 µM	1.74 µM	9.74 µM	2.86 µM	9.85 µM	4.08 µM	35.9 µM	4.08 µM	> 52.8 µM
C/C=C1\NC(=O)[C@H]2CSSCCC=C[C@H](CC(=O)N[C@H](C(C)C)C(=O)N2)OC(=O)[C@H](C(C)C)NC1=O	< 0.01 µM	< 0.01 µM and 0.0145 µM and 0.0193 µM	< 0.01 µM	< 0.012 µM and 0.0205 µM and 0.0185 µM	< 0.01 µM and 0.000147 µM		< 0.01 µM	0.0206 µM and 0.0401 µM	< 0.01 µM	0.0459 µM and 0.0364 µM	< 0.01 µM	0.179 µM and 0.051 µM and 0.0469 µM	< 0.01 µM	< 0.01 µM and 0.000402 µM	1.98 µM and 0.676 µM	27.7 µM and 11.2 µM	< 0.01 µM	< 0.01 µM and 0.013 µM	< 0.01 µM	< 0.01 µM and 0.0175 µM and < 0.0122 µM
O=c1cccc(C2CC(CO)C3CCCCN3C2)[nH]1 (centres undefined)		> 100 µM		> 100 µM		> 100 µM		> 100 µM		> 100 µM		> 100 µM		> 100 µM		> 100 µM		> 100 µM		> 100 µM
COc1cc2ncnc(Nc3ccc(F)c(Cl)c3)c2cc1NC(=O)/C=C/CN1CCCCC1	1.45 µM and 1.54 µM	3.1 µM and 3.54 µM	1.27 µM and 1.65 µM	3.71 µM and > 8.03 µM	1.65 µM and 2.05 µM	5.12 µM and > 8.09 µM	1.5 µM and 1.42 µM	3.99 µM and 4.73 µM	< 0.01 µM and 0.00256 µM	1.76 µM and 1.48 µM	1.63 µM and 1.56 µM	3.08 µM and 3.03 µM	0.812 µM and 0.556 µM	4.04 µM and 3.71 µM	1.48 µM and 1.12 µM	7.15 µM and 6.37 µM	1.78 µM and 2.44 µM	4.03 µM and > 7.08 µM	1.79 µM and 1.65 µM	3.36 µM and 3.14 µM
NC(N)=NCCC1OC(=O)C2=C1c1c(O)ccc3nccc(c13)O2 (centres undefined)	> 100 µM	> 100 µM	> 100 µM	> 100 µM	> 100 µM	> 100 µM	23.8 µM	> 100 µM	> 100 µM	> 100 µM	> 100 µM	> 100 µM	> 100 µM	> 100 µM	> 100 µM	> 100 µM	> 100 µM	> 100 µM	> 100 µM	> 100 µM
CCOc1cc(/C=N\Nc2nnc(C)n2N)c(C)cc1N(CCCl)CCCl	0.56 µM	13.2 µM	0.638 µM	> 20.6 µM	0.646 µM	> 100 µM	1.97 µM	> 92.6 µM	0.805 µM	> 100 µM	1.29 µM	17.4 µM	0.212 µM	2.41 µM	1.37 µM	14.3 µM	1.13 µM	6.23 µM	1.97 µM	53.8 µM
COc1cc(-c2cn(-c3ccc(Cl)c(Cl)c3)c(=O)n2C(C)=O)cc(OC)c1OC	13.7 µM	27.9 µM	15 µM	41 µM	16.1 µM	> 100 µM	6.92 µM	30 µM	10.4 µM	30.5 µM	2.07 µM	4.29 µM	16.6 µM	32.1 µM	13.5 µM	31.7 µM	1.53 µM	5.79 µM	11.6 µM	29.6 µM
CCn1c2ccc(O)cc2c2c(C)c3c[n+](C)ccc3c(C)c21	4.55 µM	> 100 µM	3.81 µM	> 100 µM	6.03 µM	> 100 µM	0.122 µM	4.33 µM	8.85 µM	> 100 µM	0.873 µM	14.8 µM	3.71 µM	59.4 µM	31.1 µM	> 100 µM	0.748 µM	31.4 µM	2.83 µM	16 µM
COc1ccc(N2C(=O)[C@H]3CC(C)c4c([nH]c5ccccc45)[C@H]3C2=O)cc1 (some centres undefined)		30.8 µM		> 90.7 µM		20 µM		> 76.2 µM		> 76.8 µM		10.5 µM		77.7 µM		12.4 µM		7.71 µM		57.8 µM
Cc1sc2nc3c4ccccc4c(NCCCN(C)C)nn3c(=O)c2c1C	4.03 µM	12.7 µM	2.52 µM	20.4 µM	1.93 µM	3.9 µM	9.66 µM	24.1 µM	6.95 µM	20.4 µM	1.65 µM	3.04 µM	4.49 µM	20.2 µM	10.7 µM	24.8 µM	8.25 µM	26.5 µM	1.73 µM	3.21 µM
COc1cc(C(=O)Nc2cc3c(cc2Oc2cc(C)cc(C)c2)C(=O)N(C)[C@@H](CC(=O)N(C)O)C(=O)N3)c(Br)c(OC)c1OC	< 0.00333 µM	< 0.00333 µM	< 0.00333 µM	0.00742 µM	< 0.00333 µM	0.00872 µM	< 0.00333 µM	0.0067 µM	0.0111 µM	0.374 µM	< 0.00333 µM	< 0.00333 µM	< 0.00333 µM	0.00573 µM	0.777 µM	7.34 µM	< 0.00333 µM	0.00898 µM	< 0.00333 µM	< 0.00333 µM
